Assay results taken from article PMC4303209, “A novel phosphatidylinositol 3-kinase (PI3K) inhibitor directs a potent FOXO-dependent, p53-independent cell cycle arrest phenotype characterized by the differential induction of a subset of FOXO-regulated genes” (Breast Cancer Research : BCR, 2014).

Tested on: MCF-7 breast cancer cells
Assay: Microarray gene expression analysis (Agilent whole human genome 4 x 44K; compound vs DMSO, LIMMA log2 fold change)
Format: cell-based
Details: cell cycle genes

SMILES: Cn1ncc2c(N3CCOCC3)nc(-c3cccc(O)c3)nc21 [ETP-45658]
- TUBB3 log2FC (Gene 10381): -0.638
- ANAPC10 log2FC (Gene 10393): 0.516
- NDRG1 log2FC (Gene 10397): 1.084
- GNB2L1 log2FC (Gene 10399): -0.052
- PRMT5 log2FC (Gene 10419): -0.043
- MAD2L2 log2FC (Gene 10459): -0.088
- TACC3 log2FC (Gene 10460): -0.430
- CREB3 log2FC (Gene 10488): -0.118
- MYBBP1A log2FC (Gene 10514): -0.538
- CIB1 log2FC (Gene 10519): -0.090
- SSSCA1 log2FC (Gene 10534): -0.330
- DCTN2 log2FC (Gene 10540): 0.043
- SMC2 log2FC (Gene 10592): 0.719
- ERN2 log2FC (Gene 10595): -0.829
- USP16 log2FC (Gene 10600): 0.971
- HEXIM1 log2FC (Gene 10614): -0.354
- SPAG5 log2FC (Gene 10615): 0.309
- STAMBP log2FC (Gene 10617): 0.425
- TXNIP log2FC (Gene 10628): 2.131
- PDPN log2FC (Gene 10630): -0.069
- RGS14 log2FC (Gene 10636): 0.556
- CTCF log2FC (Gene 10664): -0.082
- CGRRF1 log2FC (Gene 10668): 0.871
- CGREF1 log2FC (Gene 10669): -0.152
- USP39 log2FC (Gene 10713): 0.041
- NUDC log2FC (Gene 10726): -0.412
- PLK4 log2FC (Gene 10733): 0.611
- STAG3 log2FC (Gene 10734): 0.527
- STAG2 log2FC (Gene 10735): 1.297
- NES log2FC (Gene 10763): -0.458
- PLK2 log2FC (Gene 10769): -0.887
- NEK6 log2FC (Gene 10783): -0.620
- SDCCAG8 log2FC (Gene 10806): 0.654
- TUBGCP2 log2FC (Gene 10844): -0.131
- LILRB1 log2FC (Gene 10859): -0.164
- USP19 log2FC (Gene 10869): 0.174
- BLCAP log2FC (Gene 10904): -0.662
- TXNL4A log2FC (Gene 10907): -0.510
- SUGT1 log2FC (Gene 10910): 0.410
- GADD45G log2FC (Gene 10912): -0.067
- EHMT2 log2FC (Gene 10919): 0.089
- BTG3 log2FC (Gene 10950): -0.035
- MAPRE2 log2FC (Gene 10982): -0.284
- KIF2C log2FC (Gene 11004): 0.489
- TLK2 log2FC (Gene 11011): 0.607
- RAB35 log2FC (Gene 11021): -0.457
- TDRKH log2FC (Gene 11022): 0.089
- PIM2 log2FC (Gene 11040): -0.863
- UBE2C log2FC (Gene 11065): -0.393
- TRIOBP log2FC (Gene 11078): 0.398
- NUPL2 log2FC (Gene 11097): 0.144
- KATNA1 log2FC (Gene 11104): 0.716
- PRDM4 log2FC (Gene 11108): 0.462
- CIT log2FC (Gene 11113): 0.376
- ZWINT log2FC (Gene 11130): -0.088
- CDC37 log2FC (Gene 11140): -0.282
- LZTS1 log2FC (Gene 11178): -0.979
- WDR6 log2FC (Gene 11180): -0.468
- RASSF1 log2FC (Gene 11186): 1.482
- CEP250 log2FC (Gene 11190): -0.206
- PMF1 log2FC (Gene 11243): -0.207
- DCTN3 log2FC (Gene 11258): 0.235
- TUSC2 log2FC (Gene 11334): -0.766
- OIP5 log2FC (Gene 11339): 0.202
- MAPRE1 log2FC (Gene 22919): -0.363
- MAPRE3 log2FC (Gene 22924): 0.034
- TRIM32 log2FC (Gene 22954): -0.374
- TPX2 log2FC (Gene 22974): 0.049
- AZI1 log2FC (Gene 22994): 0.520
- CEP152 log2FC (Gene 22995): 0.685
- USP33 log2FC (Gene 23032): 1.045
- WAPAL log2FC (Gene 23063): 0.789
- TRIM35 log2FC (Gene 23087): 0.473
- CLASP2 log2FC (Gene 23122): 0.610
- POGZ log2FC (Gene 23126): 0.396
- PHF8 log2FC (Gene 23133): -0.483
- SMC5 log2FC (Gene 23137): -0.109
- FBXL7 log2FC (Gene 23194): -0.171
- PSME4 log2FC (Gene 23198): 0.174
- RRS1 log2FC (Gene 23212): -0.840
- NUP210 log2FC (Gene 23225): -0.548
- PLCB1 log2FC (Gene 23236): 1.212
- BOP1 log2FC (Gene 23246): -0.416
- NUP160 log2FC (Gene 23279): -0.451
- FBXW11 log2FC (Gene 23291): -0.357
- UBR2 log2FC (Gene 23304): 0.788
- USP22 log2FC (Gene 23326): 0.274
- CLASP1 log2FC (Gene 23332): -0.307
- PPP1R13B log2FC (Gene 23368): 0.098
- DICER1 log2FC (Gene 23405): -0.887
- SIRT1 log2FC (Gene 23411): 1.263
- ITGB3BP log2FC (Gene 23421): 0.773
- PES1 log2FC (Gene 23481): -0.445
- ZFYVE26 log2FC (Gene 23503): 0.361
- SCRIB log2FC (Gene 23513): -0.165
- CCNDBP1 log2FC (Gene 23582): 0.710
- CD2AP log2FC (Gene 23607): 0.637
- NUP62 log2FC (Gene 23636): -0.576
- RABGAP1 log2FC (Gene 23637): 0.485
- PPP1R15A log2FC (Gene 23645): 1.011
- POLA2 log2FC (Gene 23649): -0.863
- ZNF318 log2FC (Gene 24149): 0.346
- RAD54B log2FC (Gene 25788): 0.549
- NIPBL log2FC (Gene 25836): 0.842
- INTS7 log2FC (Gene 25896): 0.076
- AHCTF1 log2FC (Gene 25909): 0.469
- SIN3A log2FC (Gene 25942): 0.788
- SH2B1 log2FC (Gene 25970): -0.484
- EGFL6 log2FC (Gene 25975): 0.028
- SENP6 log2FC (Gene 26054): 0.596
- FBXO6 log2FC (Gene 26270): 0.322
- FBXO5 log2FC (Gene 26271): 0.498
- NUPR1 log2FC (Gene 26471): 0.023
- AATF log2FC (Gene 26574): -0.362
- CKAP2 log2FC (Gene 26586): 0.829
- HBP1 log2FC (Gene 26959): 3.023
- MLH3 log2FC (Gene 27030): 0.187
- MTBP log2FC (Gene 27085): 0.847
- TJP3 log2FC (Gene 27134): 0.162
- VPS4A log2FC (Gene 27183): -0.366
- PDCD4 log2FC (Gene 27250): 1.281
- APEX2 log2FC (Gene 27301): -0.875
- UBE2S log2FC (Gene 27338): -0.678
- EML4 log2FC (Gene 27436): -0.240
- PPP2R3B log2FC (Gene 28227): -0.106
- MCTS1 log2FC (Gene 28985): -0.243
- HIPK2 log2FC (Gene 28996): -0.166
- BRD7 log2FC (Gene 29117): 0.662
- RACGAP1 log2FC (Gene 29127): 0.627
- UHRF1 log2FC (Gene 29128): -0.406
- PSMC3IP log2FC (Gene 29893): 0.342
- GPSM2 log2FC (Gene 29899): 0.274
- SAC3D1 log2FC (Gene 29901): 0.069
- RPA4 log2FC (Gene 29935): -0.445
- ANAPC4 log2FC (Gene 29945): 0.654
- SERTAD1 log2FC (Gene 29950): -1.280
- CUZD1 log2FC (Gene 50624): 0.419
- PARD6A log2FC (Gene 50855): -0.204
- GMNN log2FC (Gene 51053): 0.163
- RPS27L log2FC (Gene 51065): 0.265
- MLXIPL log2FC (Gene 51085): 0.256
- SBDS log2FC (Gene 51119): 0.607
- DYNC1LI1 log2FC (Gene 51143): 0.709
- ING4 log2FC (Gene 51147): 1.465
- TUBE1 log2FC (Gene 51175): 0.231
- LEF1 log2FC (Gene 51176): -0.842
- HERC5 log2FC (Gene 51191): 0.711
- NUSAP1 log2FC (Gene 51203): 0.849
- DUSP13 log2FC (Gene 51207): -0.060
- WAC log2FC (Gene 51322): 0.945
- DACT1 log2FC (Gene 51339): 0.045
- FZR1 log2FC (Gene 51343): -0.538
- TAOK3 log2FC (Gene 51347): 1.243
- PRKAG2 log2FC (Gene 51422): -0.498
- SNX9 log2FC (Gene 51429): 0.822
- ANAPC7 log2FC (Gene 51434): -0.070
- LCMT1 log2FC (Gene 51451): -0.115
